Test results reported in US10327447B2, “Phosphonate functional antimicrobial coatings for metal surfaces” (NANO SAFE COATINGS INCORPORATED, priority 2013, dated 2019).

What was measured:
Staphylococcus aureus [1] = test: Minimum inhibitory concentration determination; type: cell-based
Description: Test organisms included gram-positive and gram-negative bacterial strains: Staphylococcus aureus, Listeria monocytogenes, Salmonella interiditis, and Escherichia coli.

Escherichia coli [2] = test: Contact killing on treated stainless steel coupons (large droplet inoculation); type: cell-based; conditions: for change in colony forming units (cfu): in as little as four hours
Salmonella interiditis = test: Minimum inhibitory concentration determination; type: cell-based; conditions: 1% stock solution in H2O, stabilized or no stabilizer
Description: (§1) Solutions of phosphonate antimicrobials (0.01 g/mL or 1%) were dissolved in H2O or ethanol, inoculated with the test organism and serially diluted from 10^−1-10^−3, representing a dilution range from 0.01 g/mL to 0.00001 g/mL, followed by plate counts to determine the minimum inhibitory concentration (MIC) values. Test organisms included gram-positive and gram-negative bacterial strains: Staphylococcus aureus, Listeria monocytogenes, Salmonella interiditis, and Escherichia coli.
(§2) Sample 1 was a 1% solution of compound 3; sample 2 was 1% solution of the sodium salt of compound 3; sample 3 was a 1% solution of compound 3 prepared by HCl dealkylation of N-(3-diisopropoxyphosphorylpropyl)-N,N-dimethyloctadecan-1-ammonium bromide.

Escherichia coli [3] = test: Minimum inhibitory concentration determination; type: cell-based; conditions: 1% stock solution in H2O, stabilized or no stabilizer
Description: as §1, §2

Listeria monocytogenes [4] = test: Minimum inhibitory concentration determination; type: cell-based; conditions: 1% stock solution in H2O, stabilized or no stabilizer
Description: as §1, §2

bacterial strains = conditions: strain not stated; cited from earlier work
S. aureus = test: Contact killing on treated titanium coupons; type: cell-based; conditions: after three hours of drying on the titanium surface
Description: (§3) A one inch by inch TiO2 square was sanded with 600 grain size sand paper, followed by an ethanol (EtOH) rinse. Samples were stored in a 120° C. oven prior to use. A 10 mM solution of compound 3 in EtOH was aerosol spayed onto the TiO2 square, allowed to air dry and placed into 120° C. oven overnight to anneal the compound followed by an EtOH rinse. Spaying, annealing and rinsing were repeated two more times.
(§4) The following bacteria were tested: Pseudomonas sp. CT07, Salmonella enteriditis, Klebsiella pneumonia, Listeria monocytogenes, Arthrobacter, Staphylococcus aureus, Pseudomonas aeruginosa PA01 and Escherichia coli. The preparation of the inoculant was performed by growing overnight cultures (10^5-10^8 cfu/ml) in 10% tryptic soy broth at room temperature and with agitation. The cells were then washed from the broth by using a centrifuge at 9000×g for 2 minutes. This step was performed to remove a nutrition source for the bacteria during the test phase.
(§5) Stainless steel coupons were treated by overnight immersion in a 1% ethanolic solution (aqueous solutions may also be used) of antimicrobial phosphonate and an overnight cure at 100° C. Untreated control (“C”), compound 2 (“S1”), compound 3 (“S2”) and Bio-Protect® AM500 silicone quaternary ammonium salt (N-(3-(trimethoxy)silylpropyl)-N,N-dimethyloctadecan-1-ammonium chloride) treated (“BSC”) stainless steel coupons were then inoculated with 0.1 mL of the overnight bacterial inoculant and were then placed in a fumehood to allow the samples to dry for 2 hours. After the appropriate time lapse the coupons were then placed into a 10 mL tube of sterile 0.9% saline and vigorously vortexed for a minute to remove the adherent cells. A dilution series was made from this solution and the series was plated onto 10% tryptic soy agar plates for enumeration. This was again repeated after 4 hours, 6 hours and 24 hours of drying.
(§6) Titanium metal coupons were treated similarly as above and tested for antibacterial activity against Salmonella and S. aureus.

Salmonella = test: Contact killing on treated titanium coupons; type: cell-based; conditions: after three hours of drying on the titanium surface
Description: as §3, §4, §5, §6

Listeria monocytogenes [5] = test: Contact killing on treated stainless steel coupons (large droplet inoculation); type: cell-based
Staphylococcus aureus [6] = test: as above; type: cell-based; conditions: in as little as four hours
Pseudomonas sp. CT07 = test: as above; type: cell-based; conditions: in as little as four hours
P. aeroguinosa = test: Agar testing of treated titanium coupons; type: cell-based; conditions: titanium coupons affixed to agar petri dishes; control fully colonized
Description: The titanium coupon samples were subjected to agar testing in which the samples were affixed to agar petri dishes and inoculated with P. aeroguinosa.

Arthrobacter [7] = test: Antimicrobial surface treatment durability (retest after saline storage); type: cell-based; conditions: treated titanium coupons stored in saline for 24 hours, washed, dried, re-innoculated
Description: Titanium metal coupons treated with compound 2 as in Example 28 were further tested for surface treatment durability. The treated coupons were stored in saline for 24 hours from the first antimicrobial trial, removed, dried, washed with distilled H2O, dried re-innoculated with Arthrobacter and retested.

Arthrobacter [8] = test: Contact killing on treated stainless steel coupons (large droplet inoculation); type: cell-based; conditions: in as little as four hours
Pseudomonas PA01 = test: as above; type: cell-based, Pseudomonas aeruginosa PA01; conditions: in as little as four hours
Salmonella enteriditis = test: as above; type: cell-based; conditions: in as little as four hours
Klebsiella pneumonia = test: as above; type: cell-based; conditions: in as little as four hours

Row | Compound | melting point | bacterial colonies (cfu) on treated titanium surface (S. aureus) | bacterial colonies (cfu) on treated titanium surface (Salmonella) | antibacterial activity compared to BSC (Listeria monocytogenes [5]) | change in colony forming units (cfu) (Staphylococcus aureus [6]) | change in colony forming units (cfu) (Pseudomonas sp. CT07) | change in colony forming units (cfu) (Arthrobacter [8]) | change in colony forming units (cfu) (Pseudomonas PA01) | change in colony forming units (cfu) (Escherichia coli [2]) | change in colony forming units (cfu) (Salmonella enteriditis) | change in colony forming units (cfu) (Klebsiella pneumonia) | further results
1 | CCCCCCCCCCCCCCCCCC[N+](C)(C)CCCP(=O)(OC(C)C)OC(C)C.[Br-] | 54 to 55 °C | – | – | – | – | – | – | – | – | – | – | –
2 | CCCCCCCCCCCCCCCCCC[N+](C)(C)CCC[Si](OC)(OC)OC.[Cl-] [BSC, N-(3-(trimethoxy)silylpropyl)-N,N-dimethyloctadecan-1-ammonium chloride] | – | – | – | – | – | – | – | – | – | – | – | concentration at which strain was inhibited (Staphylococcus aureus [1]; 1% stock solution in H2O, stabilized or no stabilizer): ≤ 100 µg/mL; time to eradication compared to the four hours of S1/S2 (Escherichia coli [2]): took longer; concentration at which strain was inhibited (Salmonella interiditis): ≤ 100 µg/mL; concentration at which strain was inhibited (Escherichia coli [3]): ≤ 100 µg/mL; concentration at which strain was inhibited (Listeria monocytogenes [4]): ≤ 100 µg/mL; literature MIC values (bacterial strains): 84 µg/mL
3 | CCCCCCCCCCCCCCCCCC[N+](C)(C)CCCP(=O)(OCC)OCC.[Br-] [compound 2, N-(3-diethoxyphosphorylpropyl)-N,N-dimethyloctadecan-1-ammonium Bromide] | – | significant reduction of bacterial colonies | significant reduction of bacterial colonies | comparable antibacterial activity | eradication | eradication | eradication | eradication | eradication | eradication | eradication | change in colony forming units (cfu) (Listeria monocytogenes [5]; after 24 hours): completely eradicated; inhibition of S. aureus (Staphylococcus aureus [1]; 1% solution, even at 100 μg/mL concentrations): highly inhibitory; visible colonies around or on the samples (P. aeroguinosa): no visible colonies; colony reductions (Arthrobacter [7]): 10^6 to 0
4 | CCCCCCCCCCCCCCCCCC[N+](C)(C)CCCP(=O)(O)O [compound 3, N-(3-phosphonopropyl)-N,N-dimethyloctadecan-1-ammonium Bromide] | 118 to 120 °C | eradication | eradication | comparable antibacterial activity | eradication | eradication | eradication | eradication | eradication | eradication | eradication | –
